Reference: patent US7960584B2, “Compounds, isomer thereof, or pharmaceutically acceptable salts thereof as vanilloid receptor antagonist; and pharmaceutical compositions containing the same” (Amorepacific Corporation, priority 2005, dated 2011)
pIC50: −log10 of the molar value.

Columns and labels:
vanilloid receptor = target: T1, vanilloid receptor (Rattus norvegicus, UniProt O35433); experiment: 45Ca influx test in primary cultured DRG neurons (capsaicin-induced calcium uptake); format: cell-based; details: neonatal SD rat DRG neurons; capsaicin 0.5 μM; 45Ca 10 μCi/ml; 10 min at room temperature
T1 construct: DRG nerve cells from the primary culture of 2 days were equilibrated; endogenous in cells; host or cells: primary culture of dorsal root ganglion neurons from neonatal SD rats
Experimental: 1) Separation of Spinal Dorsal Root Ganglia (DRG) in Newborn Rats and Primary Culture Thereof
Neonatal (2-3 day old or younger than 2-3 day old) SD rats were put in ice for 5 minutes to anesthetize and disinfected with 70% ethanol. DRG of all part of spinal cord were dissected (Wood et al., 1988, J. Neurosci. 8, pp 3208-3220) and collected in DME/F12 medium to which 1.2 g/l sodium bicarbonate, 50 mg/l gentamycin were added. The DRG were incubated sequentially at 37° C. for 30 min in 200 U/ml collagenase and 2.5 mg/ml trypsin, separately. The ganglia were washed twice with DME/F12 medium supplemented with 10% horse serum, triturated through a fire-polished Pasteur pipette, filtered through Nitex 80 membrane to obtain single cell suspension and the suspension was washed once more. This was subjected to centrifugation, then resuspended in cell culture medium at certain level of cell density. As the cell culture medium, DME/F12 medium supplemented with 10% horse serum was diluted with identical medium conditioned by C6 glioma cells 2 days on a confluent monolayer (1:1), and NGF (Nerve Growth Factor) was added to adjust 200 ng/ml as final concentration. After the cells were grown 2 days in medium where cytosine arabinoside (Ara-C, 100 μM) was added to kill dividing nonneuronal cells, medium was changed to one without Ara-C. The resuspended cells were plated at a density of 1500-2000 neurons/well onto Terasaki plates previously coated with 10 μg/ml poly-D-ornithine.
2) ^45Ca Influx Experiments
DRG nerve cells from the primary culture of 2 days were equilibrated by washing 4 times with HEPES (10 mM, pH 7.4)-buffered Ca^2+, Mg^2+-free HBSS (H-HBSS). The solution in each well was removed from the individual well. Medium containing the test compound plus capsaicin (final concentration 0.5 μM) and ^45Ca (final concentration 10 μCi/ml) in H-HBSS was added to each well and incubated at room temperature for 10 mins. Terasaki plates were washed five times with H-HBSS and dried at room temperature. To each well, 0.3% SDS (10 μl) was added to elute ^45Ca. After the addition of scintillation cocktail of into each well, the amount of ^45Ca influx into neuron was measured by counting radioactivity.

Male ICR mice = experiment: Analgesic activity test: mouse writhing test induced with phenyl-p-quinone; format: in vivo; details: dose 1 mg/kg intraperitoneally 30 min before phenyl-p-quinone 4.5 mg/kg i.p.; writhes counted 6-12 min after
Experimental: 2. Analgesic Activity Test: Mouse Writhing Test by Inducing with Phenyl-p-quinone
Male ICR mice (mean body weight 25 g) were maintained in a controlled lighting environment (12 h on/12 h off) for experiment. Animals received an intraperitoneal injection of 0.3 ml of the chemical irritant phenyl-p-quinone (dissolved in saline containing 5% ethanol to be a dose of 4.5 mg/kg) and 6 mins later, the number of abdominal constrictions was counted in the subsequent 6 mins period. Animals (10 animals/group) received 0.2 ml of test compounds solution in vehicle of ethanol/Tween 80/saline (10/10/80) intraperitoneally 30 min before the injection of phenyl-p-quinone. A reduction in the number of writhes responding to the test drug compound relative to the number responding in saline control group was considered to be indicative of an analgesic effect. Analgesic effect was calculated by % inhibition equation (% inhibition=(C−T)/C×100), wherein C and T represent the number of writhes in control and compound-treated group, respectively (Table 2).

T1 sequence (O35433 whole entry): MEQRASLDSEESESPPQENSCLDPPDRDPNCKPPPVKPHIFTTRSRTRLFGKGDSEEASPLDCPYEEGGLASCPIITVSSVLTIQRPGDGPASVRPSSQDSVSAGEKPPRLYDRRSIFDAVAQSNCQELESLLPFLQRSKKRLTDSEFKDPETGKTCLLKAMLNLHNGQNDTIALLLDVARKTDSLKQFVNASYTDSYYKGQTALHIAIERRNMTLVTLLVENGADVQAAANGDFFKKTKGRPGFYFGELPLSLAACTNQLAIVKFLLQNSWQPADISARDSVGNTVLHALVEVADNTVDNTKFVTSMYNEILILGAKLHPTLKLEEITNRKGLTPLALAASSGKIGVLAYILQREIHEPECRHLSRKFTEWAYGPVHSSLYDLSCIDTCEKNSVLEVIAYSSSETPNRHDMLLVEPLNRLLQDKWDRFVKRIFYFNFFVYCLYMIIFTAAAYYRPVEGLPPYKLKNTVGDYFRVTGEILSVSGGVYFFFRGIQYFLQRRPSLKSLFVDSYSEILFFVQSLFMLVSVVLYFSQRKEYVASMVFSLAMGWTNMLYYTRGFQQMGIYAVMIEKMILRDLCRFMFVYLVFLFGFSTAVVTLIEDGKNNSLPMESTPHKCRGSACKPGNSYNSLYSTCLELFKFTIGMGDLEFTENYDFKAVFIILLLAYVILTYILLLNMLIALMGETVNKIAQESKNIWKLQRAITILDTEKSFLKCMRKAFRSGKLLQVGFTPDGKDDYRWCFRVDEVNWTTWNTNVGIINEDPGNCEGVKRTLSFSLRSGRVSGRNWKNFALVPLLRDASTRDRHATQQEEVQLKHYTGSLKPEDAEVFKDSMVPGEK

Compound | pIC50 (vanilloid receptor) | Analgesic effect (% Inhibition) (Male ICR mice) | melting point [°C]
CC(C)(C)c1ccc(/C=C/C(=O)NCc2ccc(NS(C)(=O)=O)c(Cl)c2)cc1 [Example 2, 3-(4-t-Butyl-phenyl)-N-(3-chloro-4-methanesulfonylamino-benzyl)-acrylamide] | 6.59 | – | –
Cc1cc(CNC(=O)/C=C/c2ccc(C(C)(C)C)cc2)ccc1NS(C)(=O)=O [Example 3, 3-(4-t-Butyl-phenyl)-N-(3-methyl-4-methanesulfonylamino-benzyl)-acrylamide] | 6.54 | – | –
CC(C)(C)c1ccc(/C=C/C(=O)NCc2cc(F)c(NS(C)(=O)=O)c(F)c2)cc1 [Example 4, 3-(4-t-Butyl-phenyl)-N-(3,5-difluoro-4-methanesulfonylamino-benzyl)-acrylamide] | 6.51 | – | –
CC(C)(C)c1ccc(/C=C/C(=O)NCc2cc(F)c(NS(C)(=O)=O)cc2F)cc1 [Example 5, 3-(4-t-Butyl-phenyl)-N-(2,5-difluoro-4-methanesulfonylamino-benzyl)-acrylamide] | 6.68 | – | –
CC(C)(C)c1ccc(/C=C/C(=O)NCc2cc(Cl)c(NS(C)(=O)=O)c(I)c2)cc1 [Example 6, 3-(4-t-Butylphenyl)-N-(3-chloro-5-iodo-4-methanesulfonylamino-benzyl)acrylamide] | 6.46 | – | –
Cc1cc(CNC(=O)/C=C/c2ccc(C(C)(C)C)cc2)cc(Cl)c1NS(C)(=O)=O [Example 7, 3-(4-t-Butyl-phenyl)-N-(3-chloro-4-methanesulfonylamino-5-methylbenzyl)acrylamide] | 6.44 | – | –
CC(C)(C)c1ccc(/C=C/C(=O)NCc2cc(F)c(NS(C)(=O)=O)c(I)c2)cc1 [Example 8, 3-(4-t-butylphenyl)-N-(3-fluoro-5-iodo-4-methanesulfonylaminobenzyl)acrylamide] | 6.74 | – | –
Cc1cc(CNC(=O)/C=C/c2ccc(C(C)(C)C)cc2)cc(F)c1NS(C)(=O)=O [Example 9, 3-(4-t-Butyl-phenyl)-N-(3-fluoro-4-methanesulfonylamino-5-methyl-benzyl)-acrylamide] | 6.44 | – | –
C/C(=C\c1ccc(C(C)(C)C)cc1)C(=O)NCc1ccc(NS(C)(=O)=O)cc1 [Example 10, 3-(4-t-butylphenyl)-N-(4-methanesulfonylaminobenzyl)-2-methyl-acrylamide] | 6.36 | – | –
C/C(=C\c1ccc(C(C)(C)C)cc1)C(=O)N[C@H](C)c1ccc(NS(C)(=O)=O)cc1 [Example 11, 3-(4-t-Butylphenyl)-N-[1-(R)-(4-methanesulfonylaminophenyl)ethyl]-2-methylacrylamide] | 7.34 | 56 | –
C/C(=C\c1ccc(C(C)(C)C)cc1)C(=O)NCc1ccc(NS(C)(=O)=O)c(F)c1 [Example 12, 3-(4-t-Butylphenyl)-N-(3-fluoro-4-methanesulfonylaminobenzyl)-2-methylacrylamide] | 6.92 | – | –
C/C(=C\C(=O)NCc1ccc(NS(C)(=O)=O)c(F)c1)c1ccc(C(C)(C)C)cc1 [Example 13, 3-(4-t-Butyl-phenyl)-but-2-enoic acid 3-fluoro-4-methanesulfonylamino-benzylamide] | 6.82 | – | –
C/C(=C\c1ccc(C(C)(C)C)cc1)C(=O)N[C@H](C)c1ccc(NS(C)(=O)=O)c(F)c1 [Example 14, 3-(4-t-Butyl-phenyl)-N-[1-(3-fluoro-4-methanesulfonylaminophenyl)ethyl]-2-methylacrylamide] | 7.39 | 42 | –
CC(C)(C)c1ccc(C#CC(=O)NCc2ccc(NS(C)(=O)=O)cc2)cc1 [Example 15, 3-(4-t-butylphenyl)-N-[4-(methanesulfonylamino)benzyl]propiolicamide] | 6.23 | – | –
C[C@@H](NC(=O)C#Cc1ccc(C(C)(C)C)cc1)c1ccc(NS(C)(=O)=O)cc1 [Example 16, 3-(4-t-butylphenyl)-N-[1-(R)-(4-methanesulfonylaminophenyl)ethyl]propiolicamide] | 7.00 | – | –
CC(C)(C)c1ccc(CNC(=O)NCc2cc(F)c(NS(C)(=O)=O)c(I)c2)cc1 [Example 17, N-{4-[3-(4-t-butylbenzyl)ureidomethyl]-2-fluoro-6-iodophenyl}methanesulfonamide] | 6.54 | – | –
CC(C)(C)c1ccc(CNC(=O)NCc2cc(I)c(NS(C)(=O)=O)cc2Cl)cc1 [Example 18, N-{4-[3-(4-t-butylbenzyl)ureidomethyl]-5-chloro-2-Iodophenyl}methanesulfonamide] | 6.28 | – | –
CCc1cc(CNC(=O)NCc2ccc(C(C)(C)C)cc2)cc(F)c1NS(C)(=O)=O [Example 19, N-{4-[3-(4-t-butylbenzyl)ureidomethyl]-2-ethyl-6-fluorophenyl}methanesulfonamide] | 6.82 | – | –
CC(C)(C)c1ccc(CNC(=O)NCc2ccc(NS(C)(=O)=O)c(F)c2)cc1 [Example 20, N-{4-[3-(4-t-butylbenzyl)ureidomethyl]-2-fluorophenyl}methanesulfonamide] | – | 82 | –
Cc1cc(CNC(=O)NCc2ccc(C(C)(C)C)cc2)ccc1NS(C)(=O)=O [Example 21, N-{4-[3-(4-t-butylbenzyl)ureidomethyl]-2-methylphenyl}methane sulfonamide] | 7.08 | 58 | –
CC(C)(C)c1ccc(CNC(=O)NCc2ccc(NS(C)(=O)=O)c(Cl)c2)cc1 [Example 22, N-{4-[3-(4-t-butylbenzyl)ureidomethyl]-2-chlorophenyl}methane sulfonamide] | 6.62 | – | 60 to 61
CC(C)(C)c1ccc(CNC(=O)NCc2ccc(NS(C)(=O)=O)c([N+](=O)[O-])c2)cc1 [Example 23, N-{4-[3-(4-t-butylbenzyl)ureidomethyl]-2-nitrophenyl}methane sulfonamide] | 6.62 | – | –
CC(C)(C)c1ccc(CNC(=O)NCc2ccc(NS(C)(=O)=O)c(I)c2)cc1 [Example 24, N-{4-[3-(4-t-Butyl-benzyl)-ureidomethyl]-2-iodo-phenyl}-methanesulfonamide] | 6.41 | – | –
CC(C)(C)c1ccc(CNC(=O)NCc2cc(F)c(NS(C)(=O)=O)c(F)c2)cc1 [Example 25, N-{4-[3-(4-t-Butyl-benzyl)-ureidomethyl]-2,6-difluoro-phenyl}-methanesulfonamide] | 6.33 | – | –
CC(C)(C)c1ccc(CNC(=O)NCc2cc(F)c(NS(C)(=O)=O)cc2F)cc1 [Example 26, N-{4-[3-(4-t-Butyl-benzyl)-ureidomethyl]-2,5-difluoro-phenyl}-methanesulfonamide] | 6.25 | – | –
Cc1cc(CNC(=O)NCc2ccc(C(C)(C)C)cc2)cc(Cl)c1NS(C)(=O)=O [Example 27, N-{4-[3-(4-t-Butylbenzyl)ureidomethyl]-2-chloro-6-methylphenyl}methanesulfonamide] | 6.72 | – | –
CCc1cc(CNC(=O)NCc2ccc(C(C)(C)C)cc2)c(Cl)cc1NS(C)(=O)=O [Example 28, N-{4-[3-(4-t-Butylbenzyl)-ureidomethyl]-5-chloro-2-ethylphenyl}methanesulfonamide] | 6.54 | – | –
Cc1cc(CNC(=O)NCc2ccc(C(C)(C)C)cc2)cc(F)c1NS(C)(=O)=O [Example 29, N-{4-[3-(4-t-Butyl-benzyl)-ureidomethyl]-2-fluoro-6-methyl-phenyl}-methanesulfonamide] | 7.14 | 54 | –
